Measurements from patent publication US4647693A, “Antibiotics DO-248-A and B and process for preparing the same” (Shionogi & Co., Ltd., priority 1984, dated 1987).
In brackets after ≈: the same amount, converted by molar mass.

What was measured:
[1] = system: M. tuberculosis R-18 (Kanamycin and rifanpicin resistant strain); assay: MIC, two-fold dilution, Dubos Tween albumin liquid medium; format: cell-based; conditions: Mycobacterium tuberculosis, 336 h, read-out: minimal inhibitory concentration (MIC)
[2] = system: M. tuberculosis R-15 (Rifanpicin resistant strain); assay: as above; format: cell-based; conditions: Mycobacterium tuberculosis, 336 h, read-out: minimal inhibitory concentration (MIC)

## CC(C)c1c(O)cc(C(NC(=N)N)C(=O)NCC(=O)O)cc1O (stereo not drawn) [DO-248-A, N-(α-guanidino-3,5-dihydroxy-4-isopropylphenylacetyl)glycine]
[1]
  MIC: 0.025 mg/L (≈ 0.0771 µM)
[2]
  MIC: 0.1 mg/L (≈ 0.308 µM)

## NC[C@H]1O[C@H](O[C@H]2[C@H](O)[C@@H](O[C@H]3O[C@H](CO)[C@@H](O)[C@H](N)[C@H]3O)[C@H](N)C[C@@H]2N)[C@H](O)[C@@H](O)[C@@H]1O [KM, kanamycin]
[1]
  MIC: > 25 mg/L
[2]
  MIC: < 0.001 mg/L

## CO[C@H]1/C=C/O[C@@]2(C)Oc3c(C)c(O)c4c(O)c(c(/C=N/N5CCN(C)CC5)c(O)c4c3C2=O)NC(=O)/C(C)=C\C=C\[C@H](C)[C@H](O)[C@@H](C)[C@@H](O)[C@@H](C)[C@H](OC(C)=O)[C@@H]1C [RFP, rifampicin]
[1]
  MIC: > 25 mg/L
[2]
  MIC: > 25 mg/L
